Structures can show the parent of a compound that is named as a salt.
Columns and labels:
[1] = target: T1, Adrenergic β2 (H292 cells) (Homo sapiens, UniProt P07550); assay: Assay for Adrenergic β2 Mediated cAMP Production (concentration response, AlphaScreen cAMP detection); format: cell-based; details: for EC50: cAMP production, 60 minutes at room temperature, 300 μM rolipram, read-out: β2 pEC50 (converted); for β2 Intrinsic activity: fraction relative to the maximum activity determined for formoterol
T1 construct: endogenous in cells; host or cells: H292 cells
T1 sequence (P07550 whole entry): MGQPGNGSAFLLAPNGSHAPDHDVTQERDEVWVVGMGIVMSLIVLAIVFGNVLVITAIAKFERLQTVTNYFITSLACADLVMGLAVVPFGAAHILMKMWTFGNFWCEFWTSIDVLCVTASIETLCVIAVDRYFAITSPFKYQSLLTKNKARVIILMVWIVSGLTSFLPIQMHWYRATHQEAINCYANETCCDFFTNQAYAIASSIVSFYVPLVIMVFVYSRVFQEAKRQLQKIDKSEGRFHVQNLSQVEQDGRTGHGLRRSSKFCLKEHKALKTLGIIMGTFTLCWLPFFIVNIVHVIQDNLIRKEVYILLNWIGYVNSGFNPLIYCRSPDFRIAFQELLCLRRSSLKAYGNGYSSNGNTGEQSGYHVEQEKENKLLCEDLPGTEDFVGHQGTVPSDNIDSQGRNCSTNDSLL
How it was run: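 H292 cells plated overnight, pre-treated with rolipram (300 μM final) 10 min, then compound 60 min at room temperature in HBSS/10 mM HEPES pH7.4/5 mM glucose, 1% DMSO. Lysate cAMP read by AlphaScreen against a cAMP standard curve; 4-parameter fit gives pEC50 and intrinsic activity as fraction of formoterol maximum.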

[2] = target: T2, human muscarinic acetylcholine M3 receptor (M3-ACh) (Homo sapiens, UniProt P20309); assay: Muscarinic 3 Receptor Binding Assay ([3H]NMS competition, SPA); details: [3H]NMS 0.1 nM, CHO-K1 cell membranes, 16 hours at room temperature; read-out: M3 pIC50 (converted)
T2 construct: expressed in transfected cells; host or cells: CHO-K1 (Chinese Hamster Ovary) cell membranes
T2 sequence (P20309 whole entry): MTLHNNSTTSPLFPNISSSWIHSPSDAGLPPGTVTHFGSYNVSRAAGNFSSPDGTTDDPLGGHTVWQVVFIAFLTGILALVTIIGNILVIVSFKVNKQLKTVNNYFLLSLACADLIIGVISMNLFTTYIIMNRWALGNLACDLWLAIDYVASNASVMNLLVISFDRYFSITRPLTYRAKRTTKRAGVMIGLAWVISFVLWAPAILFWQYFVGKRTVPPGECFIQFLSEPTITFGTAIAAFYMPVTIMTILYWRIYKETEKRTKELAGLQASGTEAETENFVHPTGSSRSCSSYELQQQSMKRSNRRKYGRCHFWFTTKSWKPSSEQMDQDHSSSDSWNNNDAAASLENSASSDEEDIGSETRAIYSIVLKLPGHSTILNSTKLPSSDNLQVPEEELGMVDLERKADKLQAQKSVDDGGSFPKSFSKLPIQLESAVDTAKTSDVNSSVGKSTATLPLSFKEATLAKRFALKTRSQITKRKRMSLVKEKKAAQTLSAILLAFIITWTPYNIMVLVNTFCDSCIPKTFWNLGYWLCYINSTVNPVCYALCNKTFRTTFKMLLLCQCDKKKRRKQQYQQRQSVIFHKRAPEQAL
How it was run: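 Competition SPA binding of 0.1 nM [3H]NMS (quarter Kd) to membranes from CHO-K1 cells expressing human M3, in 20 mM HEPES pH 7.4, 5 mM MgCl2, 1% DMSO. Incubated 16 h at room temperature; non-specific binding with 1 µM atropine. pIC50 from 50% reduction of specific binding.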

EC50 [1]	β2 Intrinsic activity [1]	IC50 [2]	SMILES
3.16 nM	1	20 nM	Cc1ccc(C(=O)N2CCOC3(CCN(Cc4ccc(F)c(CCNC[C@H](O)c5ccc(O)c6[nH]c(=O)sc56)c4F)CC3)C2)s1 [Example 34, (R)-7-(2-(2,6-Difluoro-3-((4-(5-methylthiophene-2-carbonyl)-1-oxa-4,9-diazaspiro[5.5]undecan-9-yl)methyl)phenethylamino)-1-hydroxyethyl)-4-hydroxybenzo[d]thiazol-2(3H)-one ditrifluoroacetate]
1.58 nM	1	31.6 nM	Cc1nc(C(=O)N2CCOC3(CCN(Cc4cccc(CCNC[C@H](O)c5ccc(O)c6[nH]c(=O)sc56)c4)CC3)CC2)cs1 [Example 89, (R)-4-Hydroxy-7-(1-hydroxy-2-(3-((10-(2-methylthiazole-4-carbonyl)-7-oxa-3,10-diazaspiro[5.6]dodecan-3-yl)methyl)phenethylamino)ethyl)benzo[d]thiazol-2(3H)-one ditrifluoroacetate]
2.51 nM	0.9	1.26 nM	Cc1ccc(C(=O)N2CCOC3(CCN(Cc4cccc(CCNC[C@H](O)c5ccc(O)c6[nH]c(=O)sc56)c4)CC3)C2)s1 [Example 15, (R)-4-Hydroxy-7-(1-hydroxy-2-(3-((4-(5-methylthiophene-2-carbonyl)-1-oxa-4,9-diazaspiro[5.5]undecan-9-yl)methyl)phenethylamino)ethyl)benzo[d]thiazol-2(3H)-one trifluoroacetate]
3.16 nM	0.9	1.58 nM	Cc1nc(C(=O)N2CCOC3(CCN(Cc4cc(F)cc(CCNC[C@H](O)c5ccc(O)c6[nH]c(=O)sc56)c4)CC3)C2)cs1 [Example 19, (R)-7-(2-(3-Fluoro-5-((4-(2-methylthiazole-4-carbonyl)-1-oxa-4,9-diazaspiro[5.5]undecan-9-yl)methyl)phenethylamino)-1-hydroxyethyl)-4-hydroxybenzo[d]thiazol-2(3H)-one ditrifluoroacetate]
7.94 nM	0.9	7.94 nM	CC(C)c1ccc(C(=O)N2CCOC3(CCN(Cc4cccc(CCNC[C@H](O)c5ccc(O)c6[nH]c(=O)sc56)c4F)CC3)C2)s1 [Example 73, (R)-7-(2-(2-Fluoro-3-((4-(5-isopropylthiophene-2-carbonyl)-1-oxa-4,9-diazaspiro[5.5]undecan-9-yl)methyl)phenethylamino)-1-hydroxyethyl)-4-hydroxybenzo[d]thiazol-2(3H)-one ditrifluoroacetate]
10 nM	0.9	1.58 nM	CCCc1cc(C(=O)N2CCOC3(CCN(Cc4cccc(CCNC[C@H](O)c5ccc(O)c6[nH]c(=O)sc56)c4)CC3)C2)cs1 [Example 267, (R)-4-Hydroxy-7-(1-hydroxy-2-(3-((4-(5-propylthiophene-3-carbonyl)-1-oxa-4,9-diazaspiro[5.5]undecan-9-yl)methyl)phenethylamino)ethyl)benzo[d]thiazol-2(3H)-one ditrifluoroacetate]
12.6 nM	0.9	20 nM	CC(C)c1csc(C(=O)N2CCOC3(CCN(Cc4cccc(CCNC[C@H](O)c5ccc(O)c6[nH]c(=O)sc56)c4F)CC3)C2)c1 [Example 74, (R)-7-(2-(2-Fluoro-3-((4-(4-isopropylthiophene-2-carbonyl)-1-oxa-4,9-diazaspiro[5.5]undecan-9-yl)methyl)phenethylamino)-1-hydroxyethyl)-4-hydroxybenzo[d]thiazol-2(3H)-one ditrifluoroacetate]
3.98 nM	0.9	0.398 nM	CC(C)c1cc(C(=O)N2CCOC3(CCN(Cc4cccc(CCNC[C@H](O)c5ccc(O)c6[nH]c(=O)sc56)c4)CC3)C2)cs1 [Example 82, (R)-4-Hydroxy-7-(1-hydroxy-2-(3-((4-(5-isopropylthiophene-3-carbonyl)-1-oxa-4,9-diazaspiro[5.5]undecan-9-yl)methyl)phenethylamino)ethyl)benzo[d]thiazol-2(3H)-one ditrifluoroacetate]
7.94 nM	1	0.631 nM	CC(C)c1nc(C(=O)N2CCOC3(CCN(Cc4cc(F)cc(CCNC[C@H](O)c5ccc(O)c6[nH]c(=O)sc56)c4)CC3)C2)cs1 [Example 42, (R)-7-(2-(3-Fluoro-5-((4-(2-isopropylthiazole-4-carbonyl)-1-oxa-4,9-diazaspiro[5.5]undecan-9-yl)methyl)phenethylamino)-1-hydroxyethyl)-4-hydroxybenzo[d]thiazol-2(3H)-one ditrifluoroacetate]

Second part, the compound before the results:

SMILES	EC50 [1]	β2 Intrinsic activity [1]	IC50 [2]
CC(C)c1cc(C(=O)N2CCOC3(CCN(Cc4cccc(C[C@@H](C)NC[C@H](O)c5ccc(O)c6[nH]c(=O)ccc56)c4)CC3)C2)cs1 [Example 276, 8-Hydroxy-5-((R)-1-hydroxy-2-((R)-1-(3-((4-(5-isopropylthiophene-3-carbonyl)-1-oxa-4,9-diazaspiro[5.5]undecan-9-yl)methyl)phenyl)propan-2-ylamino)ethyl)quinolin-2(1H)-one ditrifluoroacetate]	39.8 nM	1	2 nM
O=C(c1cc2ccccc2s1)N1CCOC2(CCN(Cc3cccc(CCNC[C@H](O)c4ccc(O)c5[nH]c(=O)sc45)c3F)CC2)C1 [Example 79, (R)-7-(2-(3-((4-(Benzo[b]thiophene-2-carbonyl)-1-oxa-4,9-diazaspiro[5.5]undecan-9-yl)methyl)-2-fluorophenethylamino)-1-hydroxyethyl)-4-hydroxybenzo[d]thiazol-2(3H)-one ditrifluoroacetate]	6.31 nM	0.9	126 nM
Cc1nc(C(=O)N2CCOC3(CCN(CCc4ccc(CNC[C@H](O)c5ccc(O)c6[nH]c(=O)ccc56)s4)CC3)C2)cs1 [Example 98, (R)-8-Hydroxy-5-(1-hydroxy-2-((5-(2-(4-(2-methylthiazole-4-carbonyl)-1-oxa-4,9-diazaspiro[5.5]undecan-9-yl)ethyl)thiophen-2-yl)methylamino)ethyl)quinolin-2(1H)-one ditrifluoroacetate]	2000 nM	0.4	1.26 nM
Cc1ccc(C(=O)N2CCOC3(CCN(CCc4cccc(CNC[C@H](O)c5ccc(O)c6[nH]c(=O)sc56)c4)CC3)C2)s1 [Example 20, (R)-4-Hydroxy-7-(1-hydroxy-2-(3-(2-(4-(5-methylthiophene-2-carbonyl)-1-oxa-4,9-diazaspiro[5.5]undecan-9-yl)ethyl)benzylamino)ethyl)benzo[d]thiazol-2(3H)-one ditrifluoroacetate]	200 nM	0.8	31.6 nM
CC(C)c1nc(C(=O)N2CCOC3(CCN(CCCCCCCC(C)(C)CNC[C@H](O)c4ccc(O)c5[nH]c(=O)sc45)CC3)C2)cs1 [Example 103, (R)-4-Hydroxy-7-(1-hydroxy-2-(9-(4-(2-isopropylthiazole-4-carbonyl)-1-oxa-4,9-diazaspiro[5.5]undecan-9-yl)-2,2-dimethylnonylamino)ethyl)benzo[d]thiazol-2(3H)-one formate]	251 nM	1	1 nM
CC(C)c1nc(C(=O)N2CCOC3(CCN(CCOc4ccc(CCNC[C@H](O)c5ccc(O)c6[nH]c(=O)ccc56)c(F)c4F)CC3)C2)cs1 [Example 77, (R)-5-(2-(2,3-Difluoro-4-(2-(4-(2-isopropylthiazole-4-carbonyl)-1-oxa-4,9-diazaspiro[5.5]undecan-9-yl)ethoxy)phenethylamino)-1-hydroxyethyl)-8-hydroxyquinolin-2(1H)-one ditrifluoroacetate]	79.4 nM	1	2.51 nM
CC(C)c1cc(C(=O)N2CCOC3(CCN(Cc4cccc(CCNC[C@H](O)c5ccc(O)c6[nH]c(=O)ccc56)c4)CC3)C2)cs1 [Example 83, (R)-8-Hydroxy-5-(1-hydroxy-2-(3-((4-(5-isopropylthiophene-3-carbonyl)-1-oxa-4,9-diazaspiro[5.5]undecan-9-yl)methyl)phenethylamino)ethyl)quinolin-2(1H)-one ditrifluoroacetate]	12.6 nM	0.8	0.501 nM
